25 compounds from patent publication US20150148311A1, “NON-SYSTEMIC TGR5 AGONISTS” (Ardelyx, Inc., priority 2011, published 2015) can be followed below.

For experiment [1], the target named is T1, human TGR5 (Homo sapiens, UniProt Q8TDU6).
T1 construct: expressed in transfected cells
T1 sequence (Q8TDU6 1-330): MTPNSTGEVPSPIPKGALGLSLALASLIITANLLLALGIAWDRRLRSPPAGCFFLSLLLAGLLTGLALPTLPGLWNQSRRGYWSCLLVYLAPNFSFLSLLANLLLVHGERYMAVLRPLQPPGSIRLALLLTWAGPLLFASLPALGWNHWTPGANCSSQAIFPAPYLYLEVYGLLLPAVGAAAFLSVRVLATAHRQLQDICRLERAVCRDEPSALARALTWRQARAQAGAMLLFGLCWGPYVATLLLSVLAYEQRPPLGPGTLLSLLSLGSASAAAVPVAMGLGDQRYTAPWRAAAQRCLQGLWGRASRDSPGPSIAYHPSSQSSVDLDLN
Kind of experiment: Cell-based TGR5 assay, HEK293 cells stably expressing human TGR5, cAMP by HTRF. Conditions: HEK293 cells stably expressing human TGR5, 30 min at 37 C, 0.05 nM to 10 μM, read-out: pEC50 Human TGR5 (converted). Here is the method: Two primary cell based screens were performed. The first utilized HEK293 cells stably transfected to heterologously express human TGR5. The second screen used the human caecum carcinoma cell line NCI-H716 which endogenously expresses human TGR5. In both assays, cells are treated with candidate TGR5 activators and assessed for the increased intercellular levels of cAMP.
HEK293 cells were transfected with a vector that expresses a gene encoding human TGR5, and a stable cell line was isolated using drug selection following standard techniques. Cells were grown overnight at 37° C./5% CO2 prior to assay.
(§1) TGR5-mediated cAMP generation was measured using a homogeneous time resolved fluorescence (HTRF) detection method (Cisbio). Test compounds were dissolved in DMSO to a final concentration of 10 mM. Serial 3-fold dilutions of the stock solution were made in DMSO, and these solutions were diluted 100-fold into Hanks Balanced Salt Solution supplemented with 10 mM HEPES pH 7.4 and 0.5 mM isobutyl methylxanthine (IBMX). Prior to assay, culture medium was replaced with fresh medium, and test compounds diluted in HBSS/HEPES/IBMX were added to the cells and incubated at 37° C. for 30 minutes.
(§2) Following incubation with test compounds, cAMP was detected through the successive addition of cAMP labeled with the modified allophyocyanin dye d2 (cAMP-d2) and cryptate-labeled anti-cAMP in lysis buffer, and reading HTRF per the manufacturer's instructions. A standard curve was used to convert the raw HTRF data into [cAMP].

Experiment [2] has as its target T2, endogenously expressed TGR5 in NCI H716 (Homo sapiens, UniProt Q8TDU6).
T2 construct: human caecum carcinoma cell line NCI-H716 which endogenously expresses human TGR5; endogenous in cells; host or cells: NCI-H716
T2 sequence (Q8TDU6 1-330): T1 sequence (Q8TDU6 1-330)
Briefly: Cell-based TGR5 assay, NCI-H716 cells endogenously expressing human TGR5, cAMP by HTRF. Conditions: 30 min at 37 C, 22 nM to 50 μM, read-out: pEC50 endogenously expressed TGR5 in NCI H716 (converted). On the procedure: Two primary cell based screens were performed. The first utilized HEK293 cells stably transfected to heterologously express human TGR5. The second screen used the human caecum carcinoma cell line NCI-H716 which endogenously expresses human TGR5. In both assays, cells are treated with candidate TGR5 activators and assessed for the increased intercellular levels of cAMP. […]
as §1, §2
(In general: In TR-FRET formats the signal depends on donor and acceptor labels being close together.)

For the compound `CS(=O)(=O)N1CC(OCc2cc(Cl)ccc2Cl)(C(=O)N2CCN(C3CC3)c3ccccc32)C1` [Example 55, (4-cyclopropyl-3,4-dihydroquinoxalin-1(2H)-yl)(3-(2,5-dichlorobenzyloxy)-1-(methylsulfonyl)azetidin-3-yl)methanone], the EC50 was 126 to 1000 nM in experiment [1] and 1260 to 50100 nM in experiment [2].
In the same order, the values of `O=C(N1CCN(C2CC2)c2ccccc21)C1(NCc2cc(C(F)(F)F)ccc2Cl)CC1` [Example 255] are less than 100 nM and less than 100 nM.
On to `CN(C[C@H](O)[C@@H](O)[C@H](O)[C@H](O)CO)C(=O)CCc1cc(Cl)c(CNC2(C(=O)N3CCN(C4CC4)c4ccccc43)CC2)cc1Cl` [Example 91, 3-(2,5-dichloro-4-((1-(4-cyclopropyl-1,2,3,4-tetrahydroquinoxaline-1-carbonyl)cyclopropylamino)methyl)phenyl)-N-methyl-N-((2S,3R,4R,5R)-2,3,4,5,6-pentahydroxyhexyl)propanamide], for which the EC50 in experiment [1] and in experiment [2] was 126 to 1000 nM each time.
For `CN(C[C@H](O)[C@@H](O)[C@@H](O)[C@H](O)CO)C(=O)CCc1ccc(Cl)c(CNC2(C(=O)N3CCN(C4CC4)c4ccccc43)CC2)c1` [Example 71, 3-(4-chloro-3-(((1-(4-cyclopropyl-1,2,3,4-tetrahydroquinoxaline-1-carbonyl)cyclopropyl)amino)methyl)phenyl)-N-methyl-N-((2S,3R,4S,5R)-2,3,4,5,6-pentahydroxyhexyl)propanamide], the EC50 in experiment [1] and in experiment [2] was 126 to 1000 nM throughout.
Take `O=C([C@@H]1CCCN1Cc1cc(C(F)(F)F)ccc1Cl)N1CCN(C2CC2)c2ccccc21` [Example 84, 1-[[(2S)-1-[[2-chloro-5-(trifluoromethyl)phenyl]methyl]pyrrolidin-2-yl]carbonyl]-4-cyclopropyl-1,2,3,4-tetrahydroquinoxaline]: the EC50 was less than 100 nM in experiment [1] and 126 to 1000 nM in experiment [2].
In the same order, the values of `O=C(O)CCc1cc(Cl)c(OCC2(C(=O)N3CCN(C4CC4)c4ccccc43)CC2)cc1Cl` [Example 33, 3-[2,5-dichloro-4-([1-[(4-cyclopropyl-1,2,3,4-tetrahydroquinoxalin-1-yl)carbonyl]cyclopropyl]methoxy)phenyl]propanoic acid] are 1260 to 50100 nM and 1260 to 50100 nM.
Regarding `CC(NCc1cc(Cl)ccc1Cl)C(=O)N1CCN(C2CC2)c2ccccc21` (centres unmarked) [Example 7, 1-(4-cyclopropyl-3,4-dihydroquinoxalin-1(2H)-yl)-2-(2,5-dichlorobenzylamino)propan-1-one], the values for the EC50 in experiment [1] and in experiment [2] were 126 to 1000 nM and 1260 to 50100 nM, respectively.
In the case of `CN(C[C@H](O)[C@@H](O)[C@H](O)[C@H](O)CO)C(=O)NCCCc1ccc(Cl)c(CNC2(C(=O)N3CCN(C4CC4)c4ccccc43)CC2)c1` [Example 69, 3-(3-(4-chloro-3-(((1-(4-cyclopropyl-1,2,3,4-tetrahydroquinoxaline-1-carbonyl)cyclopropyl)amino)methyl)phenyl)propyl)-1-methyl-1-((2S,3R,4R,5R)-2,3,4,5,6-pentahydroxyhexyl)urea], the EC50 in experiment [1] and in experiment [2] was 1260 to 50100 nM throughout.
As to `O=C(N1CCN(C2CC2)c2ccccc21)C1(NCc2cc(Cl)ccc2C(F)(F)F)CC1` [Example 254], the EC50 in experiment [1] and in experiment [2] was less than 100 nM throughout.
For the compound `COc1ccc(COC2(C(=O)N3CCN(C4CC4)c4ccccc43)CC2)c(Cl)c1` [Example 246], the results for the EC50 in experiment [1] and in experiment [2] were 126 to 1000 nM and 1260 to 50100 nM, respectively.
Turning to `NCCCc1cc(Cl)c(CNC2(C(=O)N3CCN(C4CC4)c4ccccc43)CC2)cc1Cl` [Example 92, (1-(4-(3-aminopropyl)-2,5-dichlorobenzylamino)cyclopropyl)(4-cyclopropyl-3,4-dihydroquinoxalin-1(2H)-yl)methanone], the EC50 in experiment [1] and in experiment [2] was 1260 to 50100 nM each time.
In the case of `N#Cc1cccc(COC2(C(=O)N3CCN(C4CC4)c4ccccc43)CC2)c1` [Example 45, 3-((1-(4-cyclopropyl-1,2,3,4-tetrahydroquinoxaline-1-carbonyl)cyclopropoxy)methyl)benzonitrile], the EC50 is 126 to 1000 nM in experiment [1] and 1260 to 50100 nM in experiment [2].
For `CN1CC(OCc2cc(Cl)ccc2Cl)(C(=O)N2CCN(C3CC3)c3ccccc32)C1` [Example 51, (4-cyclopropyl-3,4-dihydroquinoxalin-1(2H)-yl)(3-(2,5-dichlorobenzyloxy)-1-methylazetidin-3-yl)methanone], in that order: 126 to 1000 nM and 1260 to 50100 nM.
Turning to `CN(C[C@H](O)[C@@H](O)[C@@H](O)[C@H](O)CO)C(=O)CCCCc1cc(Cl)c(CNC2(C(=O)N3CCN(C4CC4)c4ccccc43)CC2)cc1Cl` [Example 220], the EC50 in experiment [1] and in experiment [2] was less than 100 nM in each case.
Take `CN(C[C@H](O)[C@@H](O)[C@H](O)[C@H](O)CO)C(=O)CCCCc1cc(Cl)c(CNC2(C(=O)N3CCN(C4CC4)c4ccccc43)CC2)cc1Cl` [Example 219]: the EC50 in experiment [1] and in experiment [2] was less than 100 nM each time.
For the compound `CN(C[C@H](O)[C@@H](O)[C@H](O)[C@H](O)CO)C(=O)CCc1ccc(Cl)c(CNC2(C(=O)N3CCN(C4CC4)c4ccccc43)CC2)c1` [Example 60, 3-(4-chloro-3-(((1-(4-cyclopropyl-1,2,3,4-tetrahydroquinoxaline-1-carbonyl)cyclopropyl)amino)methyl)phenyl)-N-methyl-N-((2S,3R,4R,5R)-2,3,4,5,6-pentahydroxyhexyl)propanamide], the EC50 in experiment [1] and in experiment [2] was 126 to 1000 nM each time.
In the case of `COc1cc(Cl)c(CNC2(C(=O)N3CCN(C4CC4)c4ccccc43)CC2)cc1Cl` [Example 256], the EC50 in experiment [1] and in experiment [2] was 126 to 1000 nM throughout.
Regarding `CC(C(=O)N1CCN(C2CC2)c2ccccc21)N1CCc2ccc(Cl)cc2C1` (centres unmarked) [Example 244], the EC50 in experiment [1] and in experiment [2] was 1260 to 50100 nM in each case.
As for `O=C(N1CCN(C2CC2)c2ccccc21)C1(OCc2cc(Cl)ccc2Cl)COC1` [Example 179, (4-cyclopropyl-3,4-dihydroquinoxalin-1(2H)-yl)(3-(2,5-dichlorobenzyloxyl)oxetan-3-yl)methanone], the EC50 was less than 100 nM in experiment [1] and 126 to 1000 nM in experiment [2].
Take `NCCCc1ccc(Cl)c(CNC2(C(=O)N3CCN(C4CC4)c4ccccc43)CC2)c1` [Example 68, (1-((5-(3-aminopropyl)-2-chlorobenzyl)amino)cyclopropyl)(4-cyclopropyl-3,4-dihydroquinoxalin-1(2H)-yl)methanone]: the EC50 in experiment [1] and in experiment [2] was 1260 to 50100 nM throughout.
Turning to `O=C(N1CCN(C2CC2)c2ccccc21)C1(OCc2cc(Cl)ccc2Cl)CCCCC1` [Example 242], the EC50 was 126 to 1000 nM in experiment [1] and greater than 50100 nM in experiment [2].
With `CN(C[C@H](O)[C@@H](O)[C@H](O)[C@H](O)CO)C(=O)CCc1ccc(Cl)c(CN2CSC[C@H]2C(=O)N2CCN(C3CC3)c3ccccc32)c1` [Example 215], the values for the EC50 in experiment [1] and in experiment [2] were 126 to 1000 nM and 1260 to 50100 nM, respectively.
As for `O=C(CCc1cc(Cl)c(CNC2(C(=O)N3CCN(C4CC4)c4ccccc43)CC2)cc1Cl)NCCOCCOCCNC(=O)CCc1cc(Cl)c(CNC2(C(=O)N3CCN(C4CC4)c4ccccc43)CC2)cc1Cl` [Example 95, N,N′-(2,2′-(ethane-1,2-diylbis(oxy))bis(ethane-2,1-diyl))bis(3-(2,5-dichloro-4-((1-(4-cyclopropyl-1,2,3,4-tetrahydroquinoxaline-1-carbonyl)cyclopropylamino)methyl)phenyl)propanamide)], the EC50 in experiment [1] was less than 100 nM; in experiment [2], 1260 to 50100 nM.
In the same order, the values of `O=C(O)CCc1ccc(Cl)c(CNC2(C(=O)N3CCN(C4CC4)c4ccccc43)CC2)c1` [Example 59, 3-(4-chloro-3-(((1-(4-cyclopropyl-1,2,3,4-tetrahydroquinoxaline-1-carbonyl)cyclopropyl)amino)methyl)phenyl)propanoic acid] are 126 to 1000 nM and 1260 to 50100 nM.
Take `O=C(N1CCN(C2CC2)c2ccccc21)C1(OCc2cc(Cl)ccc2Cl)CCOCC1` [Example 79, 1-cyclopropyl-4-([4-[(2,5-dichlorophenyl)methoxy]oxan-4-yl]carbonyl)-1,2,3,4-tetrahydroquinoxaline]: the values for the EC50 in experiment [1] and in experiment [2] were 126 to 1000 nM and 1260 to 50100 nM, respectively.
